In ChEMBL document CHEMBL4477224, “Antidiabetic effect, antioxidant activity, and toxicity of 3',4'-Di-O-acetyl-cis-khellactone in Streptozotocin-induced diabetic rats” (Bioorg Med Chem Lett, 2016):
Activity calls are given as the source filed them. No cut-off for these calls is given here.

Key:
[1] = Mutagenicity in Salmonella typhimurium TA98 assessed as mutagenic index at 0.19 uM/plate after 48 hrs in absence of S9 fraction by Ames test relative to control; type: toxicity; conditions: salmonella enterica subsp. enterica serovar typhimurium, s9, 48 h
[2] = Mutagenicity in Salmonella typhimurium TA102 assessed as mutagenic index at 0.005 uM/plate after 48 hrs in presence of S9 fraction by Ames test relative to control; type: toxicity, subcellular; conditions: salmonella enterica subsp. enterica serovar typhimurium, s9, 48 h
[3] = Mutagenicity in Salmonella typhimurium TA100 assessed as mutagenic index at 0.005 uM/plate after 48 hrs in presence of S9 fraction by Ames test relative to control; type: toxicity, subcellular; conditions: salmonella enterica subsp. enterica serovar typhimurium, s9, 48 h
[4] = Mutagenicity in Salmonella typhimurium TA98 assessed as mutagenic index at 0.005 uM/plate after 48 hrs in presence of S9 fraction by Ames test relative to control; type: toxicity, subcellular; conditions: salmonella enterica subsp. enterica serovar typhimurium, s9, 48 h
[5] = Toxicity in DBA/2J mouse assessed as mortality; conditions: in vivo
Rattus norvegicus [6] = experiment: Antioxidant activity in STZ-induced diabetic Wistar rat liver assessed as glutathione peroxidase level measured as NADPH consumption per mg of protein at 2.5 mg/kg, po administered for 15 days (reference value: 10 +/- 0.6 microM/min); type: functional
Rattus norvegicus [7] = experiment: Antidiabetic activity in STZ-induced diabetic Wistar rat blood assessed as LDL level at 2.5 mg/kg, po administered for 15 days (reference value: 23.11 +/- 9.82 mg/dl); type: functional
Rattus norvegicus [8] = experiment: Antidiabetic activity in STZ-induced diabetic Wistar rat assessed as decrease in blood glucose level at 2.5 mg/kg, po administered for 15 days post STZ challenge measured on day 21 by glucometry relative to control; type: functional; parameters: scale not given: the % may be the effect or the level left
Rattus norvegicus [9] = experiment: Antidiabetic activity in STZ-induced diabetic Wistar rat assessed as body weight at 2.5 mg/kg, po administered for 15 days post STZ challenge measured on day 21 (reference value: 330.7 +/- 9.2 g); type: functional
Rattus norvegicus [10] = experiment: Antidiabetic activity in STZ-induced diabetic Wistar rat assessed as effect on hepatocytes surrounding central vein architecture at 2.5 mg/kg, po administered for 15 days by hematoxylin/eosin staining based microscopy; type: functional, organism-based
Rattus norvegicus [11] = experiment: Antidiabetic activity in STZ-induced diabetic Wistar rat blood assessed as HDL level at 2.5 mg/kg, po administered for 15 days (reference value: 36.31 +/- 0.51 mg/dl); type: functional
Rattus norvegicus [12] = experiment: Antidiabetic activity in STZ-induced diabetic Wistar rat assessed as increase in fasting blood glucose level at 2.5 mg/kg, po administered for 15 days post STZ challenge measured on day 21 by glucometry; type: functional
Rattus norvegicus [13] = experiment: Antidiabetic activity in STZ-induced diabetic Wistar rat assessed as change in fasting blood glucose level at 2.5 mg/kg, po administered on day 7 post STZ challenge measured immediately post dosage by glucometry (reference value: 63.75 +/- 7.3 mg/dl); type: functional
Rattus norvegicus [14] = experiment: Antioxidant activity in STZ-induced diabetic Wistar rat liver assessed as SOD level measured per mg of protein at 2.5 mg/kg, po administered for 15 days by NBT reduction test (reference value: 0.22 +/- 0.06 microM/min); type: functional
Rattus norvegicus [15] = experiment: Antioxidant activity in STZ-induced diabetic Wistar rat liver assessed as catalase level measured as H2O2 consumption per mg of protein at 2.5 mg/kg, po administered for 15 days (reference value: 68.9 +/- 11.1 microM/min); type: functional
Rattus norvegicus [16] = experiment: Antidiabetic activity in STZ-induced diabetic Wistar rat blood assessed as urea level at 2.5 mg/kg, po administered for 15 days (reference value: 62.98 +/- 6.21 mg/dl); type: functional
Rattus norvegicus [17] = experiment: Antidiabetic activity in STZ-induced diabetic Wistar rat assessed as change in fasting blood glucose level at 2.5 mg/kg, po administered for 15 days post STZ challenge measured on day 21 by glucometry (reference value: 63.75 +/- 7.3 mg/dl); type: functional
Rattus norvegicus [18] = experiment: Antidiabetic activity in STZ-induced diabetic Wistar rat assessed as change in fasting blood glucose level at 2.5 mg/kg, po administered for 7 days post STZ challenge measured on day 14 by glucometry (reference value: 63.75 +/- 7.3 mg/dl); type: functional
Rattus norvegicus [19] = experiment: Antidiabetic activity in STZ-induced diabetic Wistar rat blood assessed as creatinine level at 2.5 mg/kg, po administered for 15 days (reference value: 0.56 +/- 0.03 mg/dl); type: functional
Rattus norvegicus [20] = experiment: Antidiabetic activity in STZ-induced diabetic Wistar rat blood assessed as cholesterol level at 2.5 mg/kg, po administered for 15 days (reference value: 80.09 +/- 9.35 mg/dl); type: functional
Rattus norvegicus [21] = experiment: Antidiabetic activity in STZ-induced diabetic Wistar rat liver assessed as effect on central vein architecture at 2.5 mg/kg, po administered for 15 days by hematoxylin/eosin staining based microscopy; type: functional, organism-based
Rattus norvegicus [22] = experiment: Antidiabetic activity in STZ-induced diabetic Wistar rat assessed as body weight at 2.5 mg/kg, po administered on day 7 post STZ challenge measured immediately post dosage (reference value: 330.7 +/- 9.2 g); type: functional
Rattus norvegicus [23] = experiment: Antidiabetic activity in STZ-induced diabetic Wistar rat assessed as increase in body weight at 2.5 mg/kg, po administered for 15 days post STZ challenge measured on day 21; type: functional
Rattus norvegicus [24] = experiment: Antidiabetic activity in STZ-induced diabetic albino Wistar rat assessed as increase in body weight at 100 mg/kg, po administered for 45 days relative to control; type: functional

With `CC1=NN(c2ccc([N+](=O)[O-])cc2)C(=O)C1[N+](=O)[O-]` (centres undefined) as the compound, how does the Ratio [1] read?
Its Ratio is 27.3.

With `Nc1ccc2cc3ccccc3cc2c1` [2-AMINOANTHRACENE] as the compound, how does the Ratio [2] read?
The Ratio was 3.5.

What about the Ratio [3] of the same compound?
The Ratio was 19.1.

What about the Ratio [4] of the same compound?
The Ratio was 54.1.

With `O=c1ccc2ccccc2o1` [COUMARIN] as the compound, how does the LD50 [5] read?
The LD50 was over 700 mg/kg.

Which Activity (Rattus norvegicus [6]) does the source give for `COc1ccc(Cl)cc1C(=O)NCCc1ccc(S(=O)(=O)NC(=O)NC2CCCCC2)cc1` [GLYBURIDE] here?
The Activity was 48.75 µM/min.

What about the Activity (Rattus norvegicus [7]) of the same compound?
The Activity was 21.71 mg/dL.

And the Activity (Rattus norvegicus [8])?
Its Activity is 56.6%.

What about the Activity (Rattus norvegicus [9]) of the same compound?
The Activity was 385.5 g.

What about the Activity (Rattus norvegicus [10]) of the same compound?
Its Activity is “Active”.

What about the Activity (Rattus norvegicus [11]) of the same compound?
Its Activity is 26.6 mg/dL.

What about the Activity (Rattus norvegicus [12]) of the same compound?
The Activity was 78.25 mg/dL.

And the Activity (Rattus norvegicus [13])?
The Activity was 211.7 mg/dL.

What about the Activity (Rattus norvegicus [14]) of the same compound?
The Activity was 0.55 U/min.

And the Activity (Rattus norvegicus [15])?
Its Activity is 93.2 µM/min.

What about the Activity (Rattus norvegicus [16]) of the same compound?
Its Activity is 58.43 mg/dL.

What about the Activity (Rattus norvegicus [17]) of the same compound?
Its Activity is 142 mg/dL.

What about the Activity (Rattus norvegicus [18]) of the same compound?
Its Activity is 282.8 mg/dL.

And the Activity (Rattus norvegicus [19])?
Its Activity is 0.62 mg/dL.

And the Activity (Rattus norvegicus [20])?
Its Activity is 70.64 mg/dL.

And the Activity (Rattus norvegicus [21])?
The Activity was “Active”.

And the Activity (Rattus norvegicus [22])?
The Activity was 341.4 g.

What about the Activity (Rattus norvegicus [23]) of the same compound?
Its Activity is 54.8 g.

Which Activity (Rattus norvegicus [24]) does the source give for `C[C@@H]1O[C@@H](OC[C@H]2O[C@@H](Oc3c(-c4ccc(O)c(O)c4)oc4cc(O)cc(O)c4c3=O)[C@H](O)[C@@H](O)[C@@H]2O)[C@H](O)[C@H](O)[C@H]1O` [RUTIN] here?
Its Activity is 12.1%.
